From ChEMBL document CHEMBL1201862, “PubChem BioAssay data set” (2004)
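1) Cells in 96-well plates. 2) Compound, 48 h, 5 concentrations. 3) Linear interpolation between surrounding doses. 4) Unreached endpoint = highest concentration. GI50: concentration for 50% inhibition of growth.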 Activity calls are given as the source filed them. Cut-off read from the data, not from the text of the source: active = GI50 up to about 1.1 µM and inactive = higher.

What was measured:
Assay in all cases: NCI anticancer screen, dose series, 48 h
SNB-75 = tested on: SNB-75
M14 = tested on: M14
SK-MEL-2 = tested on: SK-MEL-2
SF-295 = tested on: SF-295
CCRF-CEM = tested on: CCRF-CEM
NCI-H460 = tested on: NCI-H460
SK-MEL-5 = tested on: SK-MEL-5
BT-549 = tested on: BT-549
A549 = tested on: A549
SK-OV-3 = tested on: SK-OV-3
SW-620 = tested on: SW-620
HCT-116 = tested on: HCT-116
NCI/ADR-RES = tested on: NCI/ADR-RES
HOP-92 = tested on: HOP-92
CAKI-1 = tested on: CAKI-1
IGROV-1 = tested on: IGROV-1
PC-3 = tested on: PC-3
MDA-N = tested on: MDA-N
SR = tested on: SR

Measured: GI50

CCOC(=O)/C=C(\C(=O)OCC)n1cc(C)c(=O)n(Cc2cnnn2COCCOC(C)=O)c1=O
inactive: SNB-75 18.4 µM | M14 20.7 µM | SK-MEL-2 19.1 µM | SF-295 25.8 µM | CCRF-CEM 1.75 µM | NCI-H460 11.9 µM | SK-MEL-5 19.7 µM | BT-549 5.52 µM | A549 21.6 µM | SK-OV-3 55.7 µM | SW-620 2.18 µM | HCT-116 9.42 µM | NCI/ADR-RES 16.1 µM | HOP-92 1.92 µM | CAKI-1 3.13 µM | IGROV-1 8.45 µM | PC-3 16 µM | MDA-N 19.9 µM

Clc1cc2nn(C3CCCCO3)nc2cc1Cl (stereo not drawn)
inactive: SNB-75 > 100 µM | M14 > 100 µM | SK-MEL-2 > 100 µM | SF-295 > 100 µM | CCRF-CEM > 100 µM | NCI-H460 > 100 µM | SK-MEL-5 > 100 µM | BT-549 > 100 µM | A549 > 100 µM | SK-OV-3 > 100 µM | HCT-116 > 100 µM | NCI/ADR-RES > 100 µM | CAKI-1 > 100 µM | IGROV-1 > 100 µM | PC-3 > 100 µM | SR > 100 µM | MDA-N > 100 µM

Cc1c(/N=N/c2ccccc2)c(-c2ccccc2)n(C2OC(CO)C(O)C(O)C2O)c(=S)c1C#N (stereo not drawn)
inactive: SNB-75 2.72 µM | M14 6.5 µM | SK-MEL-2 4.48 µM | SF-295 6.71 µM | CCRF-CEM 2.32 µM | NCI-H460 10.6 µM | SK-MEL-5 2.33 µM | BT-549 5.4 µM | A549 5.83 µM | SK-OV-3 11.1 µM | SW-620 4.97 µM | NCI/ADR-RES 17.3 µM | IGROV-1 5.75 µM | PC-3 2.99 µM | SR > 100 µM | MDA-N 4.71 µM

N#Cc1cnn2c1n[n+]([O-])c1ccc(Cl)cc12
inactive: SNB-75 6.9 µM | M14 8.13 µM | SK-MEL-2 7.31 µM | SF-295 14.7 µM | CCRF-CEM 1.75 µM | NCI-H460 11.4 µM | SK-MEL-5 12.4 µM | BT-549 12.8 µM | A549 14.1 µM | SK-OV-3 8.61 µM | SW-620 9.14 µM | HCT-116 8.75 µM | NCI/ADR-RES 9.68 µM | HOP-92 2.19 µM | CAKI-1 1.26 µM | IGROV-1 4.14 µM | PC-3 14.7 µM | MDA-N 8.65 µM

O=c1/c(=C/c2ccc([N+](=O)[O-])o2)sc2n1[C@@H](c1ccc(Cl)cc1)C=C(c1cc(F)c(Cl)cc1Cl)N=2
inactive: SNB-75 29.2 µM | M14 14.6 µM | SK-MEL-2 5.04 µM | SF-295 21.3 µM | CCRF-CEM 4.83 µM | NCI-H460 10 µM | SK-MEL-5 13.9 µM | BT-549 15.1 µM | A549 30.3 µM | SK-OV-3 14.8 µM | SW-620 4.91 µM | HCT-116 3.56 µM | NCI/ADR-RES 30.8 µM | HOP-92 12.9 µM | CAKI-1 28.7 µM | IGROV-1 15.8 µM | PC-3 11.5 µM | MDA-N 4.65 µM

COC(=O)c1c(C(=O)OC)c(C(c2ccccc2)c2ccccc2)n(-c2ccccc2)c1Cl
inactive: M14 > 10 µM | SF-295 5 µM | CCRF-CEM 4.61 µM | NCI-H460 > 10 µM | SK-MEL-5 > 10 µM | BT-549 7.16 µM | A549 7.03 µM | SW-620 7.43 µM | HCT-116 3.7 µM | NCI/ADR-RES 4.24 µM | HOP-92 9.14 µM | CAKI-1 > 10 µM | IGROV-1 > 10 µM | PC-3 3.09 µM | SR 3.17 µM | MDA-N > 10 µM

O=C(CCc1ccc(O)cc1)NCCCNC(=O)CCc1ccc(O)cc1
inactive: SNB-75 24.7 µM | M14 > 100 µM | SK-MEL-2 > 100 µM | SF-295 > 100 µM | CCRF-CEM > 100 µM | NCI-H460 > 100 µM | SK-MEL-5 > 100 µM | BT-549 > 100 µM | A549 > 100 µM | SK-OV-3 > 100 µM | SW-620 > 100 µM | HCT-116 > 100 µM | NCI/ADR-RES > 100 µM | CAKI-1 > 100 µM | IGROV-1 > 100 µM | PC-3 > 100 µM | SR > 100 µM | MDA-N > 100 µM

CC(C)(C)c1cc2c(O)c(c1)C(c1ccccc1)c1cc(C(C)(C)C)cc(c1O)Cc1cc(C(C)(C)C)cc(c1O)C(c1ccccc1)c1cc(C(C)(C)C)cc(c1O)C2 (stereo not drawn)
inactive: M14 > 100 µM | SK-MEL-2 > 100 µM | SF-295 > 100 µM | CCRF-CEM 44.9 µM | NCI-H460 > 100 µM | SK-MEL-5 > 100 µM | BT-549 > 100 µM | A549 > 100 µM | SW-620 > 100 µM | HCT-116 > 100 µM | NCI/ADR-RES > 100 µM | HOP-92 > 100 µM | CAKI-1 > 100 µM | IGROV-1 > 100 µM | PC-3 > 100 µM | SR 62.7 µM | MDA-N > 100 µM

O=C(Nc1nnc(-c2ccccc2)o1)C(SC(=S)N1CCOCC1)c1ccccc1 (stereo not drawn)
inactive: SNB-75 47.9 µM | M14 20.4 µM | SK-MEL-2 16.8 µM | SF-295 21.8 µM | CCRF-CEM 5.75 µM | NCI-H460 10.1 µM | SK-MEL-5 15.7 µM | BT-549 22.5 µM | A549 22.6 µM | SK-OV-3 42.9 µM | SW-620 42.5 µM | HCT-116 22.5 µM | NCI/ADR-RES 14.6 µM | CAKI-1 30.2 µM | IGROV-1 35.7 µM | PC-3 27 µM | SR 9.75 µM | MDA-N 26.3 µM

C=CC(O)(CBr)CCC(Br)C(C)(C)Cl (stereo not drawn)
inactive: SNB-75 > 10 µM | M14 > 10 µM | SK-MEL-2 > 10 µM | SF-295 > 10 µM | CCRF-CEM > 10 µM | NCI-H460 > 10 µM | SK-MEL-5 > 10 µM | BT-549 > 10 µM | A549 > 10 µM | SK-OV-3 > 10 µM | SW-620 > 10 µM | HCT-116 > 10 µM | NCI/ADR-RES > 10 µM | HOP-92 > 10 µM | CAKI-1 > 10 µM | IGROV-1 > 10 µM | PC-3 > 10 µM | MDA-N > 10 µM

COc1ccc(/N=N/c2c(C)c(C#N)c(=S)n(C3OC(CO)C(O)C(O)C3O)c2-c2ccccc2)cc1 (stereo not drawn)
inactive: SNB-75 17.2 µM | M14 24.9 µM | SK-MEL-2 33 µM | SF-295 30.8 µM | CCRF-CEM 20 µM | NCI-H460 31.3 µM | SK-MEL-5 11.5 µM | BT-549 38 µM | A549 36.7 µM | SK-OV-3 27.2 µM | SW-620 26.1 µM | HCT-116 30.1 µM | NCI/ADR-RES 93.1 µM | CAKI-1 24.2 µM | IGROV-1 30.4 µM | PC-3 17.1 µM | SR 32.1 µM | MDA-N 37.4 µM

CSc1c(C#N)c(S)[nH]c(=O)c1C#N
inactive: SNB-75 32.1 µM | M14 24.5 µM | SK-MEL-2 13.7 µM | CCRF-CEM 55.5 µM | NCI-H460 97.7 µM | SK-MEL-5 9.91 µM | BT-549 40.5 µM | A549 40.7 µM | SK-OV-3 > 100 µM | SW-620 48.9 µM | HCT-116 34.4 µM | NCI/ADR-RES 43.2 µM | CAKI-1 > 100 µM | IGROV-1 22.8 µM | PC-3 29.4 µM | SR 51.2 µM | MDA-N 24.4 µM

CC(=O)n1[nH]c(=O)n(-c2ccccc2)c1=O
inactive: M14 > 100 µM | SK-MEL-2 > 100 µM | SF-295 > 100 µM | CCRF-CEM > 100 µM | NCI-H460 > 100 µM | SK-MEL-5 > 100 µM | BT-549 > 100 µM | A549 > 100 µM | SK-OV-3 > 100 µM | SW-620 > 100 µM | HCT-116 > 100 µM | NCI/ADR-RES > 100 µM | CAKI-1 > 100 µM | IGROV-1 > 100 µM | PC-3 > 100 µM | SR > 100 µM | MDA-N > 100 µM

O=c1[nH]c(=O)n(C2CC(O)C(CO)O2)cc1OCCc1ccccc1 (stereo not drawn)
inactive: SNB-75 > 100 µM | M14 > 100 µM | SF-295 > 100 µM | CCRF-CEM > 100 µM | NCI-H460 > 10 µM | SK-MEL-5 > 100 µM | BT-549 > 100 µM | A549 > 100 µM | SK-OV-3 > 100 µM | HCT-116 > 100 µM | NCI/ADR-RES > 100 µM | CAKI-1 > 100 µM | IGROV-1 > 100 µM | PC-3 > 100 µM | SR > 100 µM | MDA-N > 100 µM

CC12CC(C#N)(C#N)C(C#N)(CO1)C(=N)O2 (stereo not drawn)
inactive: SNB-75 > 100 µM | M14 > 100 µM | SK-MEL-2 > 100 µM | SF-295 > 100 µM | CCRF-CEM 26.9 µM | NCI-H460 63.7 µM | SK-MEL-5 > 100 µM | BT-549 > 100 µM | A549 > 100 µM | SK-OV-3 > 100 µM | SW-620 53.6 µM | HCT-116 64.3 µM | NCI/ADR-RES 71.1 µM | HOP-92 52.7 µM | CAKI-1 31.8 µM | IGROV-1 > 100 µM | PC-3 > 100 µM | MDA-N > 100 µM

CC(C)Oc1c(C2(c3ccccc3)SCCCS2)c(=O)c1=O
inactive: SNB-75 > 100 µM | M14 > 100 µM | SK-MEL-2 > 100 µM | SF-295 > 100 µM | CCRF-CEM 45.6 µM | NCI-H460 > 100 µM | SK-MEL-5 > 100 µM | BT-549 > 100 µM | A549 > 100 µM | SK-OV-3 > 100 µM | SW-620 > 100 µM | HCT-116 > 100 µM | NCI/ADR-RES > 100 µM | HOP-92 > 100 µM | CAKI-1 > 100 µM | IGROV-1 > 100 µM | PC-3 > 100 µM | MDA-N > 100 µM
